These results are taken from BindingDB's records for doi:10.7270/Q26T0K2P (Nmmlsc, 2010).

The target of this assay is T1, Regulator of G-protein signaling 19 (Homo sapiens, UniProt P49795).
T1 sequence (P49795 whole entry): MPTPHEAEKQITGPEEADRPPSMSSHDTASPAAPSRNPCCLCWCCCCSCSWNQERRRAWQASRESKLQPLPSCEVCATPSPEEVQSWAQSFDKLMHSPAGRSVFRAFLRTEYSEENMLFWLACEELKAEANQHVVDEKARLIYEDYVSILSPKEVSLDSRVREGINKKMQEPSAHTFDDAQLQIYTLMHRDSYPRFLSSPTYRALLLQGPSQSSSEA
The assay is described as follows: RGS19-Galphao binding modulators, analog potency, SAR follow-up, biochemical, SAR compounds, multiplexed bead flow cytometry (AID 2311). Background: Flow cytometry measures light scatter and fluorescence of single cells or particles in a stream.

Each structure is given as a SMILES string. pKi: −log10 of the molar value.

A word on the pKi: it is −log10 of the Ki, conventionally taken in molar units. Lower therefore signals a high Ki. Turning to `NS(=O)(=O)c1ccc(N=NCc2ccc(O)c(O)c2O)c([N+](=O)[O-])c1` [4-[[(E)-(2,3-dihydroxy-4-oxo-1-cyclohexa-2,5-dienylidene)methyl]hydrazo]-3-nitrobenzenesulfonamide], the negative logarithm of the Ki (pKi) was 7.00.
